Experimental data published in ChEMBL document CHEMBL1201862, “PubChem BioAssay data set” (2004).
Blank lines part the entries; values can stand above or below the compound they belong to. Active and inactive are the calls of the source.

Assays:
Type in all cases: functional
T-cell = test: loss of vesicle association with mouse CD8+ T cells – mouse 2C CD8+ T cells, flow cytometry, dose response (AID 485284)
[1] = molecular target: Delta-type opioid receptor (Homo sapiens, UniProt P41143); test: SAR Analysis of Antagonists of the DOR Receptor using an Image-Based Assay - Set 3. [Related pubchem assays (depositor defined):AID1777, AID1785];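 further: U2OS cells expressing DOR1 and beta-arrestin GFP stimulated with 100 nM SNC80; imaging of GFP-tagged beta-arrestin moving into spots after receptor activation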
Chain of Delta-type opioid receptor (P41143 whole entry): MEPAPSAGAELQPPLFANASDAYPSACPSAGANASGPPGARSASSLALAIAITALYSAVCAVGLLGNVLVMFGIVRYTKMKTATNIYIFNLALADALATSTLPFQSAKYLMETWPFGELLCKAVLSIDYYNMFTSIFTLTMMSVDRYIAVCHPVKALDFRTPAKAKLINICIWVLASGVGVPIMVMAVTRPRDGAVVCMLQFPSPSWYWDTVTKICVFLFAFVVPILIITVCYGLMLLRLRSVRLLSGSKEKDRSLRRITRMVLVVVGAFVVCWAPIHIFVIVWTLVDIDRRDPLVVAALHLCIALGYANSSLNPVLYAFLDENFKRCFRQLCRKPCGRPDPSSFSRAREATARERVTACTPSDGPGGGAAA

Mu-type opioid receptor = Mu-type opioid receptor (Homo sapiens, UniProt P35372); test: SAR Analysis of Antagonists of the MOR Receptor using an Image-Based Assay - Set 3. [Related pubchem assays (depositor defined):AID1777, AID1785, AID1786, AID1966, AID2133, AID2136, AID2284, AID2285, AID2420]
Chain of Mu-type opioid receptor (P35372 whole entry): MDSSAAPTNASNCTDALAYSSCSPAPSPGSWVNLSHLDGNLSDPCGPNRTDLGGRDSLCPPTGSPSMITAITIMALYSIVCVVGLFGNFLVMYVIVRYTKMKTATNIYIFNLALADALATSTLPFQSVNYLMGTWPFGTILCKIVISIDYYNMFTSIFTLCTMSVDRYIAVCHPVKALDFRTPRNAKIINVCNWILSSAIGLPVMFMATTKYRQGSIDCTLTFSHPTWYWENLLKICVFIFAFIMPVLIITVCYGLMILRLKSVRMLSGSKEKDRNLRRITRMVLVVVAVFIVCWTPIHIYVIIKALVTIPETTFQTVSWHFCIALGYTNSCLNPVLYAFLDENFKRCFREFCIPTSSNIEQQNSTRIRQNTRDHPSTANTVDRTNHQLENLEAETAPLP

[2] = molecular target: T1, Kappa-type opioid receptor (Homo sapiens, UniProt P41145); test: SAR analysis of Antagonists of the Kappa Opioid Receptor (KOR) using an Image-Based Assay - Set 4. [Related pubchem assays (depositor defined):AID1777, AID1785]
T1 sequence (P41145 whole entry): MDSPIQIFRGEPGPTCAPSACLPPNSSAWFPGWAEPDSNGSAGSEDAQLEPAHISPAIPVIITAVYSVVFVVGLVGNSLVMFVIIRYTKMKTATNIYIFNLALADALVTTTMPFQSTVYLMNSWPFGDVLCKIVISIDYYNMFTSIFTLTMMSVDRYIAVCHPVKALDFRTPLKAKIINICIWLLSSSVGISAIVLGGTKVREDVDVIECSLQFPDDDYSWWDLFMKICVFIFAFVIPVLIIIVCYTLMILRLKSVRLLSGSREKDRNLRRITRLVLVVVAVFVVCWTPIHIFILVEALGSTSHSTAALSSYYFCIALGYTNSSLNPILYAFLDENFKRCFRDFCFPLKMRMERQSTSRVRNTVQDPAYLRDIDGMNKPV

[3] = molecular target: T1, Kappa-type opioid receptor; test: SAR analysis of small molecule antagonists of the kappa opioid receptor via a luminescent beta-arrestin assay - Set 3. [Related pubchem assays (depositor defined):AID1777, AID1778, AID1785, AID1786, AID1966, AID2133, AID2136, AID2285, AID2495]
[4] = molecular target: G-protein coupled receptor 55 (Homo sapiens, UniProt Q9Y2T6); test: SAR Analysis of Selective Antagonists of GPR55 using an Image-Based Assay - Set 3. [Related pubchem assays (depositor defined):AID2058, AID2079]
Chain of G-protein coupled receptor 55 (Q9Y2T6 whole entry): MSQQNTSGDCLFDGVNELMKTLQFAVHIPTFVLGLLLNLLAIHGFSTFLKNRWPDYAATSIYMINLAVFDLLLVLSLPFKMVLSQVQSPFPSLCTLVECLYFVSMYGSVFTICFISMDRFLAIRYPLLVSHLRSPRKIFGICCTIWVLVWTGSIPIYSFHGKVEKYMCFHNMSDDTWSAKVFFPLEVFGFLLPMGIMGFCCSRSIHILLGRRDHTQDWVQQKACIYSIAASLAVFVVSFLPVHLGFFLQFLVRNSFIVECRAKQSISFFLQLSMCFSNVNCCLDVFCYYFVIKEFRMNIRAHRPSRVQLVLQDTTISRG

[5] = molecular target: G-protein coupled receptor 35 (Homo sapiens, UniProt Q9HC97); test: SAR analysis of Antagonists of the GPR35 Receptor using an Image-Based Assay - Set 5. [Related pubchem assays (depositor defined):AID2058, AID2079]
Chain of G-protein coupled receptor 35 (Q9HC97 whole entry): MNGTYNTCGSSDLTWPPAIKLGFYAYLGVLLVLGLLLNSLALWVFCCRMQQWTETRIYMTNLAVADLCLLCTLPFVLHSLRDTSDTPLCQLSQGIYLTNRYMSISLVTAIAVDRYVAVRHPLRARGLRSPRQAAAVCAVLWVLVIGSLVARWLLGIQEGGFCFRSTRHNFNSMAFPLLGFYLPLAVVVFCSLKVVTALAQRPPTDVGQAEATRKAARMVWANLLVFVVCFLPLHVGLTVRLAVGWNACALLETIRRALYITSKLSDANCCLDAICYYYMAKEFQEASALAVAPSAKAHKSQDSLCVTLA

[6] = molecular target: Voltage-dependent T-type calcium channel subunit alpha-1H (Homo sapiens, UniProt O95180); test: human CACNA1H calcium influx blockade – cell-based, synthetic library set 1, calcium flux (AID 493022)
Chain of Voltage-dependent T-type calcium channel subunit alpha-1H (O95180 whole entry): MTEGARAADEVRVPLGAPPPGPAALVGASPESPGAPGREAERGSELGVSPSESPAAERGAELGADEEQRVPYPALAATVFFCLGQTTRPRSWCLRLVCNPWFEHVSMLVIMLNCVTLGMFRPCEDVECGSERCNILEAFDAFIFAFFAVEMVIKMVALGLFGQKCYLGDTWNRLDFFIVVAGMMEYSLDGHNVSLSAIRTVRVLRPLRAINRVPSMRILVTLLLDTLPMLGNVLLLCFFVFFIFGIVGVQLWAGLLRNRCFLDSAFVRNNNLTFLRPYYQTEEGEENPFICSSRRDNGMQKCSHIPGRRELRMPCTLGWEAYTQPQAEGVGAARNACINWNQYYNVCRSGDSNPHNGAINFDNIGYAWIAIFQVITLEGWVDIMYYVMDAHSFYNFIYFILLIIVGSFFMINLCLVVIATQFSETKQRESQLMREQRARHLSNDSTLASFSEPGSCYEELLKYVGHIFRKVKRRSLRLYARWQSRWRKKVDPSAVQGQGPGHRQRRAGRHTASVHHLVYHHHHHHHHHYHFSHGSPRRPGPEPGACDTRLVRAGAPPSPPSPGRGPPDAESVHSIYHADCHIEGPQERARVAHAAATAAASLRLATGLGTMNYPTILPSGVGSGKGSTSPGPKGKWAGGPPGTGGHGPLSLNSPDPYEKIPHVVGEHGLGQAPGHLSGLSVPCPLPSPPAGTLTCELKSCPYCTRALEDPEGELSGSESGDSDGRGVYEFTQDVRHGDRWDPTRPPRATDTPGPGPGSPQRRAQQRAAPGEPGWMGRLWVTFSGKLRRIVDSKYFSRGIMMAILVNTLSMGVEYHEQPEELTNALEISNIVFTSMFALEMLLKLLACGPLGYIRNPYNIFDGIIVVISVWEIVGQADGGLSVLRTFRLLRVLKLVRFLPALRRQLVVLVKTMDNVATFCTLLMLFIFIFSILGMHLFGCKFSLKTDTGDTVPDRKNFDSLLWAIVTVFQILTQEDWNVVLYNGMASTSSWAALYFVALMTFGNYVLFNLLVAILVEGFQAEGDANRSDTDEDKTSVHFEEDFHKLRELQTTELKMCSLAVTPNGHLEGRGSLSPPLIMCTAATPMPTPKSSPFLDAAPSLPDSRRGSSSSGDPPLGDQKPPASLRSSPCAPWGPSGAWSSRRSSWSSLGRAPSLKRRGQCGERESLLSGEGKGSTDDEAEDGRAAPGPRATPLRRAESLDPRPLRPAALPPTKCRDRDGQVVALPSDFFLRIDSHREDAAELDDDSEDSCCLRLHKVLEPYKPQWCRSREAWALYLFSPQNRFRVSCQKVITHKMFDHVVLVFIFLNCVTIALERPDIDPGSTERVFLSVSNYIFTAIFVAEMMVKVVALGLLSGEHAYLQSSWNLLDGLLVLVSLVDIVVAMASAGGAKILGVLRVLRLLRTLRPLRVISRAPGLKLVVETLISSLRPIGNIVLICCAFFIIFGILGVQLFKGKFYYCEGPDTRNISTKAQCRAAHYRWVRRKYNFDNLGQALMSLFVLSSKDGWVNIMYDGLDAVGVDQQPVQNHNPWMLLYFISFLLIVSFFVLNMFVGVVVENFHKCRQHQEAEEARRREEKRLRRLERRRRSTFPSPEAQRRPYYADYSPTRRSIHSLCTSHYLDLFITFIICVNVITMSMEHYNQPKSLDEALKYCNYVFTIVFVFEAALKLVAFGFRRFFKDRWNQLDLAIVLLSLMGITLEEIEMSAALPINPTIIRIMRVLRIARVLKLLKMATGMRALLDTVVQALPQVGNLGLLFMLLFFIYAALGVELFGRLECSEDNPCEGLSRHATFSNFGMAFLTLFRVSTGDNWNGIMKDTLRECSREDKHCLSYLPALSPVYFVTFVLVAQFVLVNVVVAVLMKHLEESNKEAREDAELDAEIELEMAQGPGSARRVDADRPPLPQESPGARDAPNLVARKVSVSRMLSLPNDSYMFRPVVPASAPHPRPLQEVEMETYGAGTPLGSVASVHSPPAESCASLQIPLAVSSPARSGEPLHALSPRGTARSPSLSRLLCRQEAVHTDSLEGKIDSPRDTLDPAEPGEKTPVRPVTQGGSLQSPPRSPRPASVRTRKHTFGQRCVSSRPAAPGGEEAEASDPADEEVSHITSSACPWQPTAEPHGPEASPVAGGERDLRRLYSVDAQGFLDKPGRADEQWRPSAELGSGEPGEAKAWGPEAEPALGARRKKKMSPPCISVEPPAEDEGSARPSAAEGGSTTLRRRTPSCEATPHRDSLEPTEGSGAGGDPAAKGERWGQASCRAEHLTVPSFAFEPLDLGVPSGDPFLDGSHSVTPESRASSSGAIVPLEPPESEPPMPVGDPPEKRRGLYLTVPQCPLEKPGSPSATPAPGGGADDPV

Hexokinase = Hexokinase (Trypanosoma brucei, UniProt Q38C41); test: Confirmation assay for inhibitors of Trypanosoma brucei hexokinase 1-Analogue-first series. [Related pubchem assays (depositor defined):AID1430, AID1632, AID2516, AID2560, AID2579, AID2600, AID449725, AID492951]
Chain of Hexokinase (Q38C41 whole entry): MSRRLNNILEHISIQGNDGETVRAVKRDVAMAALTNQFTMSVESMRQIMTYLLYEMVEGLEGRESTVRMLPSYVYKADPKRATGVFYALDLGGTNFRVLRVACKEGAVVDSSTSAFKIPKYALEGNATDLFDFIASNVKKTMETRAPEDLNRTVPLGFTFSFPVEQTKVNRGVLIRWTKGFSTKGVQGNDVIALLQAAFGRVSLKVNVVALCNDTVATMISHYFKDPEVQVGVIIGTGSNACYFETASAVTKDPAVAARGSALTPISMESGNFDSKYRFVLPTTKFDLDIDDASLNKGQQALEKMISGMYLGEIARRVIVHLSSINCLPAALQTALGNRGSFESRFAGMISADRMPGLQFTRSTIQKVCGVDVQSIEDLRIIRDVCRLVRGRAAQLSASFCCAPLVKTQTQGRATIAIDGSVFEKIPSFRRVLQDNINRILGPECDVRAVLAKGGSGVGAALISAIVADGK

SMILES: COc1ccc(S(=O)(=O)N2CCCCC2)cc1NC(=O)c1cnc(C)cn1
EC50 (T-cell): 0.558 µM (active)

IC50 [1]: > 32 µM (inactive)
IC50 (Mu-type opioid receptor): 22.5 µM (inactive)
IC50 [2]: 2.56 µM (active)
IC50 [3]: 4.95 µM (active)
SMILES: Cc1ccnc2c1n1cccc1c(=O)n2CC(=O)NCCCN1CCN(c2ccccc2)CC1

IC50 [4]: > 32 µM (inactive)
IC50 [5]: 0.379 µM (active)
SMILES: COC(=O)c1cnn(-c2ccc(F)cc2F)c1/C=N/NC(=S)Nc1ccccc1

EC50 [6]: 1.3 µM (active)
SMILES: CC(Oc1ccccc1)C(=O)Nc1nnc(-c2ccc3c(c2)CCCC3)o1 (centres undefined)

SMILES: O=C(Nc1cc(Cl)ccc1C(=O)O)c1ccsc1
IC50 (Hexokinase): > 25 µM (inactive)
